These are literature values, as cited in publication PMC12311865, “In Vitro Evaluation of the Potential Interactions of Zearalenone-14-sulfate and Zearalenone-14-glucuronide with Human Cytochrome P450 Enzymes, Organic Anion Transporting Polypeptides, and ATP-Binding Cassette Multidrug Transporters” (ACS Omega, 2025).

The target of this series is T1, OATP1B1 (Homo sapiens, UniProt Q9Y6L6).
T1 construct: expressed in transfected cells; host or cells: A431
T1 sequence (Q9Y6L6 1-691): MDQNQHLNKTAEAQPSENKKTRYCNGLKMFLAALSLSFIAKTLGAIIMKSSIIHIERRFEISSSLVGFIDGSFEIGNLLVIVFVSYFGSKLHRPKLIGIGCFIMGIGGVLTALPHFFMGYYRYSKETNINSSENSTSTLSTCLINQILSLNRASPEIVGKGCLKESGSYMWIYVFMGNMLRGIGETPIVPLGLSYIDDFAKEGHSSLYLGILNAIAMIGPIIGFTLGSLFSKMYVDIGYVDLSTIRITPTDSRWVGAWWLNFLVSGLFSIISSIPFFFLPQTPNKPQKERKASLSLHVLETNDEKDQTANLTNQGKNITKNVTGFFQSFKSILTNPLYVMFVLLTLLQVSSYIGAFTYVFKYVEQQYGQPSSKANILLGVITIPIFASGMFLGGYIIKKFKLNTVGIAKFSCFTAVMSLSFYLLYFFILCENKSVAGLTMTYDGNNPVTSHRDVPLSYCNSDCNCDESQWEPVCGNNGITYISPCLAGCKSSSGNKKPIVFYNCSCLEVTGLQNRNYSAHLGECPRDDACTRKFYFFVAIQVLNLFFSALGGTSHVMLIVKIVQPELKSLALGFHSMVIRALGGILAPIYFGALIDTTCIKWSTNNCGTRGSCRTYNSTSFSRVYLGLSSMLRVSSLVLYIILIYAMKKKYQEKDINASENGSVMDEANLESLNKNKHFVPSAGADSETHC
Set-up: method as in earlier report. Particulars: same experimental model; ref earlier report; cited from earlier work.

pIC50: −log10 of the molar value.

What is called pIC50 is −log10 of the IC50, conventionally taken in molar units. Regarding `C[C@H]1CCCC(=O)CCC/C=C/c2cc(O)cc(O)c2C(=O)O1` [ZEN, Zearalenone], the pIC50 was below 5.00.
